The results in this text go back to the supplement of paper PMC4862054.

The subject of test [1] is CAL-85-1. Conditions: 72 h. The procedure, abridged: (§1)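 Breast cancer cell lines in 20 µl suspension were seeded onto 384-well plates pre-loaded with compound dissolved in 5 µl medium, then incubated 72 h. For viability, 2.5 µl CellTiter-Blue was added for 2 h at 37 °C and fluorescence read at 560/590 nm. Each plate was normalised to vehicle and a positive kill control and checked by Z'-factor. EC50 comes from the fitted percent-inhibition dose-response curve, censored at the highest concentration; rows with zero drug sensitivity score were dropped.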

Another test has as its system MDA-MB-453. Conditions: 72 h. The method, boiled down:
as §1

The test system of test [2] is DU-4475. Conditions: 72 h. The procedure, abridged:
as §1

A further test concerns SK-BR-3. Conditions: 72 h. The procedure, abridged: (§2)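 In this assay, breast cancer cell lines spent 72 h with compound at 5 concentrations in 10-fold steps over a compound-specific 10,000-fold range. The first readout was cell death by CellTox Green fluorescence, and the second was viability by CellTiter-Glo luminescence, each normalised per plate to 0.1 % DMSO and a positive kill control. EC50 came from the dose-response curves, censored at the top concentration.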

The subject of test [3] is CAL-148. Conditions: 72 h. The method, boiled down: as §2
The test system of test [4] is HCC1143. Conditions: 72 h. The method, boiled down: as §2
Test [5] has as its system Hs578T. Conditions: 72 h. The method, boiled down: as §2
In a further test the test system is BT-549. Conditions: 72 h. The method, boiled down:
as §2

Test [6] relates to CAL-51. Conditions: 72 h. The method, boiled down: as §2
Test [7] has as its system HDQ-P1. Conditions: 72 h. The method, boiled down: as §2
Test [8] relates to BT-474. Conditions: 72 h. The method, boiled down:
as §2

The test system of test [9] is MDA-MB-436. Conditions: 72 h. The method, boiled down:
as §2

In test [10] the test system is DU-4475. Conditions: 72 h. The procedure, abridged: as §2
This is another data set of the same source.

In test [11] the test system is HCC1143. Conditions: 72 h. The method, boiled down:
as §1
The source holds these as a separate data set.

Test [12] deals with Hs578T. Conditions: 72 h. The method, boiled down: as §1
This is another data set of the same source.

A further test has as its system MDA-MB-468. Conditions: 72 h. The procedure, abridged: as §1
The subject of test [13] is HCC1599. Conditions: 72 h. The method, boiled down:
as §1

Test [14] relates to MDA-MB-231. Conditions: 72 h. The method, boiled down: as §1
The test system of test [15] is CAL-148. Conditions: 72 h. The procedure: (§3)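 Drug sensitivity and resistance testing (DSRT) of breast cancer cell lines in 384-well plates, 5 concentrations in 10-fold dilutions over a compound-specific 10,000-fold range. After 72 h, cytotoxicity was read by CellTox Green fluorescence and viability by CellTiter-Glo luminescence (multiplexed), normalised to DMSO and benzethonium chloride controls. EC50 is the inflection point of the fitted dose-response curve (bottom asymptote free, so it can be relative for partial curves) and is censored at the highest tested concentration. Rows with DSS 0 (no meaningful response) were excluded.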
This is another data set of the same source.

Test [16] concerns CAL-51. Conditions: 72 h. As for the experimental part: as §3
This is another data set of the same source.

Test [17] has as its system CAL-85-1. Put plainly: normalised response (% of control), CellTiter-Glo; higher = more viable cells (100 = DMSO, 0 = benzethonium chloride kill control). Conditions: incubation time: 72 h. The method, boiled down: (§4)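 After 72 h with compound in 384-well plates, breast cancer cell lines seeded as 20 µl suspension were read for CellTox Green fluorescence at 485/520 nm. CellTiter-Glo luminescence was then read after 10 min at room temperature. Compound was present at 5 concentrations in 10-fold steps over a 10,000-fold range set per compound, and plates were normalised to 0.1 % DMSO (100) and a positive kill control (0). Values are normalised signals, each at a single concentration.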

The test system of test [18] is HDQ-P1. The description is as above. Conditions: incubation time: 72 h. The procedure, abridged:
as §4

Test [19] relates to BT-474. The description is as above. Conditions: incubation time: 72 h. The procedure, abridged:
as §4

Test [20] relates to MDA-MB-436. Described as above. Conditions: incubation time: 72 h. The method, boiled down: as §4
Test [21] concerns HDQ-P1. Conditions: 72 h. The procedure, abridged:
as §1
The source holds these as a separate data set.

A further test deals with MFM-223. Conditions: 72 h. The method, boiled down: as §1
Test [22] relates to BT-474. Conditions: 72 h. The method, boiled down:
as §1
This is another data set of the same source.

Test [23] has as its system CAL-85-1. Conditions: 72 h. The procedure, abridged: as §2
This is another data set of the same source.

Test [24] has as its system HCC1599. Conditions: 72 h. The method, boiled down: as §2
This is another data set of the same source.

The test system of the next test is HCC1937. Conditions: 72 h. The procedure, abridged:
as §2

Test [25] relates to MDA-MB-231. Conditions: 72 h. The procedure, abridged:
as §2
This is another data set of the same source.

For `Nc1ccn([C@@H]2O[C@H](CO)[C@@H](O)[C@@H]2O)c(=O)n1` [Cytarabine], the “EC50, CellTiter-Blue viability” value was 1190 nM in the test on CAL-85-1 [1]; 396 nM in the test on MDA-MB-453; 450 nM with DU-4475 [2]; 213 nM in the test on HCC1143 [11]; 17.3 nM in the test on Hs578T [12]; 483 nM in the test on MDA-MB-468. In addition, the “EC50, CellTiter-Blue viability” value with HCC1599 [13] came to 556 nM; in the test with MDA-MB-231 [14], 183 nM. In addition, the “EC50, CellTiter-Glo” value with SK-BR-3 worked out at 156 nM; in the test with CAL-148 [3] it was 200 nM; in the test with HCC1143 [4] it was 1270 nM; in the test on Hs578T [5], 462 nM; in the test on BT-549, 305 nM; in the test on CAL-51 [6], 544 nM. The “EC50, CellTiter-Glo” value in the test on HDQ-P1 [7] is 2890 nM; in the test with BT-474 [8], greater than 10000 nM; in the test with MDA-MB-436 [9], 364 nM; with DU-4475 [10], 339 nM. Besides, the “EC50, CellTox Green” value with CAL-148 [15] is 61.6 nM; with CAL-51 [16], 315 nM.

Regarding `Nc1ccn([C@@H]2O[C@H](CO)[C@@H](O)[C@@H]2O)c(=O)n1` [Cytarabine] (10000 nM), the normalised response in the test with CAL-85-1 [17] turned out to be 69.3%; with HDQ-P1 [18], 77.4%; with BT-474 [19], 87.2%; with MDA-MB-436 [20], 38.7%.

With `Cc1c2oc3c(C)ccc(C(=O)N[C@@H]4C(=O)N[C@H](C(C)C)C(=O)N5CCC[C@H]5C(=O)N(C)CC(=O)N(C)[C@@H](C(C)C)C(=O)O[C@@H]4C)c3nc-2c(C(=O)N[C@@H]2C(=O)N[C@H](C(C)C)C(=O)N3CCC[C@H]3C(=O)N(C)CC(=O)N(C)[C@@H](C(C)C)C(=O)O[C@@H]2C)c(N)c1=O` [Dactinomycin] (1000 nM), the normalised response was 5.09% with CAL-85-1 [17], 24.8% with HDQ-P1 [18], 12.8% in the test with BT-474 [19] and 17.1% in the test with MDA-MB-436 [20].

For `COc1cccc2c1C(=O)c1c(O)c3c(c(O)c1C2=O)C[C@@](O)(C(=O)CO)C[C@@H]3O[C@H]1C[C@H](N)[C@H](O)[C@H](C)O1` [Doxorubicin] (1000 nM), the normalised response with CAL-85-1 [17] stood at 17.7%; in the test on HDQ-P1 [18], 46.7%; in the test with BT-474 [19] it was 22.1%; in the test with MDA-MB-436 [20], 28.6%.

As for `Cc1ccc(F)c(NC(=O)Nc2ccc(-c3cccc4[nH]nc(N)c34)cc2)c1` [Linifanib], the “EC50, CellTiter-Glo” value in the test on CAL-51 [6] stood at 411 nM.

For `Cc1ccc(F)c(NC(=O)Nc2ccc(-c3cccc4[nH]nc(N)c34)cc2)c1` [Linifanib] (1000 nM), the normalised response with CAL-85-1 [17] stood at 101%; with HDQ-P1 [18], 115%; in the test on BT-474 [19] it was 101%; with MDA-MB-436 [20], 111%.

For the compound `COc1cc(Nc2ncc3c(n2)-c2ccc(Cl)cc2C(c2c(F)cccc2OC)=NC3)ccc1C(=O)O` [MLN8237], the “EC50, CellTiter-Blue viability” value amounted to 29.6 nM in the test with CAL-85-1 [1]; 11.1 nM in the test on MDA-MB-453; 51 nM in the test with HDQ-P1 [21]; 57.5 nM with DU-4475 [2]; 68.7 nM in the test on HCC1143 [11]; 41.8 nM in the test on Hs578T [12]. For the same compound, the “EC50, CellTiter-Blue viability” value in the test on MDA-MB-468 came out at 76.2 nM; with HCC1599 [13], 2050 nM; with MDA-MB-231 [14], 502 nM; in the test on MFM-223, 388 nM; in the test on BT-474 [22], 1160 nM.

For the compound `S=c1[nH]cnc2nc[nH]c12` [Mercaptopurine], the “EC50, CellTiter-Glo” value was 985 nM in the test with Hs578T [5]; 4410 nM in the test with CAL-85-1 [23]; 3820 nM with HCC1599 [24]; 833 nM in the test with HCC1937; 569 nM with HDQ-P1 [7]; 906 nM with MDA-MB-231 [25]. Moreover, the “EC50, CellTiter-Glo” value in the test on BT-474 [8] was 3920 nM; with DU-4475 [10] it was 1820 nM. In the test on MDA-MB-468, the “EC50, CellTiter-Blue viability” value came out at 387 nM.
